This assay deals with T1, Enoyl-[acyl-carrier-protein] reductase [NADH] (Francisella tularensis subsp. tularensis (strain SCHU S4 / Schu 4), UniProt Q5NGQ3).
T1 sequence (Q5NGQ3 whole entry): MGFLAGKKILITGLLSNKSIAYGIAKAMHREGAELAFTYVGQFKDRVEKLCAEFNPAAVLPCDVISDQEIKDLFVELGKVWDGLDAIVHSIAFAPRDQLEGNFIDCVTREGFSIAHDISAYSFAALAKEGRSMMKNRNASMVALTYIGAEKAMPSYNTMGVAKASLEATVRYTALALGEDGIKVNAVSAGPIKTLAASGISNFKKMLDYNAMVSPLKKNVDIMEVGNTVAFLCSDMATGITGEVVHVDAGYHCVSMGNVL

Here are results for one molecule from ChEMBL document CHEMBL2151032, “Structural and enzymatic analyses reveal the binding mode of a novel series of Francisella tularensis enoyl reductase (FabI) inhibitors” (J Med Chem, 2012).

Broadly, the Ki is the dissociation constant of the complex between target and ligand, obtained from inhibition or displacement. High values mean lower affinity, low ones higher affinity.

On to `Cc1cc2ncn(Cc3ccc(Cl)c(Cl)c3)c2cc1C`, for which the Ki came out at 360 nM.
